Results taken from US20090053338A1, “Method for the preparation of phytoprogestogenic extracts from rhizoma ligusticum chuanxiong and uses thereof” (priority 2003, published 2009).

What was measured:
male Sprague-Dawley rats [1] = system: male Sprague-Dawley rats
Experimental: Sprague-Dawley rats were fasted overnight. Two mls of L.C. (2 g), MPA (10 mg) and vehicle (60% Ethanol) were orally fed to male rats using gavage tubes. Serum samples were collected from the tail vein at indicated time points, before and after L.C. administration. Bioactive progestogens were extracted from serum and tested for progestogenic activity using our receptor-based bioassay. Each data point is the Mean±SEM of samples obtained from 6 different rats. Bars indicate progestogenic activity of original MPA and L.C. extract in-vitro. Progestogenic activity is expressed as fold increase compared to cells exposed to vehicle only.
To determine the pharmacokinetics and bioequivalence of LC, we measured the progestogenic effect of rat serum sampled at defined time points after oral doses of LC (2 g/2 ml), MPA (10 mg/2 ml), and vehicle only (2 ml 60% ethanol). Serum samples were extracted and progesterone effect measured as in Example 12.

male Sprague-Dawley rats [2] = details: subcutaneous; MPA 10 mg
Excerpt: Each data point is the Mean±SEM of samples obtained from 6 different rats. Bars indicate progestogenic activity of original MPA and L.C. extract in-vitro. Progestogenic activity is expressed as fold increase compared to cells exposed to vehicle only.

[3] = system: subjects with transient ischemic attack; details: cited from earlier work
[4] = target: T1, human progesterone receptor (PR-B) (Homo sapiens, UniProt P06401); test: cell-based progesterone reporter gene assay (PR-B + PRE2-TATA-LUC luciferase) in HeLa cells; details: peak activity at 10 μM
T1 construct: DNA encoding the full length human progesterone receptor (PR-B); expressed in transfected cells; host or cells: HeLa cells
T1 sequence (P06401 1-933): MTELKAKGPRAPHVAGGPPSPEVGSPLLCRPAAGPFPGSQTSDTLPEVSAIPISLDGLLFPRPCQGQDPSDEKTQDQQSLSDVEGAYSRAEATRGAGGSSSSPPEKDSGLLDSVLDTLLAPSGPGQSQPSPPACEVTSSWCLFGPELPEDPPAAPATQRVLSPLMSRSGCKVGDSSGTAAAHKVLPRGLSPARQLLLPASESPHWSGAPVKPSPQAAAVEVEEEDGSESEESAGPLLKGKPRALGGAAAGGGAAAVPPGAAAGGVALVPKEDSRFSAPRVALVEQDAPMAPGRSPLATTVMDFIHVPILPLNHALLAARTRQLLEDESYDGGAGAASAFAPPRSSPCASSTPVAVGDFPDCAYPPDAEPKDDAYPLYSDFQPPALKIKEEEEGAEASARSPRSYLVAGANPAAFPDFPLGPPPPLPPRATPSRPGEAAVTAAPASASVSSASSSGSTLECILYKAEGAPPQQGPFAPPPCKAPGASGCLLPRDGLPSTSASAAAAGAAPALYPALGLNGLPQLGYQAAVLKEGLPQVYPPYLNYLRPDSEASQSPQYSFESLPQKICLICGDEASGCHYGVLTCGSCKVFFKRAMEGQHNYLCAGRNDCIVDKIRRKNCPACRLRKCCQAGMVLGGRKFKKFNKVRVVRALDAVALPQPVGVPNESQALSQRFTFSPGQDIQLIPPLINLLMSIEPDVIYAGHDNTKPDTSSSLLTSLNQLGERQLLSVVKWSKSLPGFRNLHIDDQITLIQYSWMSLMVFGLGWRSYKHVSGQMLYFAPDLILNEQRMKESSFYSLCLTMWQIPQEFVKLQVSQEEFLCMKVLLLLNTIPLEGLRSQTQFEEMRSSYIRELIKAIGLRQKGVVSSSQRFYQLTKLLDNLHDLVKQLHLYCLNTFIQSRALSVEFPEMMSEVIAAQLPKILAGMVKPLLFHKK
Excerpt: In the progestogen receptor assay of the invention, HeLa cells grown in 24-well microtiter plates were transiently co-transfected with two plasmids using lipofectamine. The first plasmid consisted of DNA encoding the full length human progesterone receptor (PR-B), and the second a progesterone reporter gene (PRE2-TATA-LUC) comprising a luciferase reporter gene driven by two copies of the progesterone response element from the aminotransferase gene. […] Replicate wells were exposed to vehicle only (ethanol) and used as negative controls. After the period of incubation, cells were rinsed with PBS buffer, lysis buffer (Promega Corp) was added, and cell lysates collected for measurement of luciferase activity. Progestogenic activity of the ligands was expressed as fold-increase in luciferase activity compared with control cells exposed to vehicle only. All data points were in triplicate. […] To begin the search for phyto-progestogens in Traditional Chinese herbal medicines, The Pharmacopoeia of the People's Republic of China (1997) was consulted and 13 herbs reported to have “uterotonic activity” were selected for screening. […] The herbal residues were re-extracted a second time with the same solvent for 2-3 hours. […] Dried extracts were weighed and re-suspended in 100% ethanol or methanol to a concentration 50 mg/ml.

[5] = system: patients with acute cerebral infarction; details: cited from earlier work

Question: Which “maintenance of peak / high levels of progestogenic effect” value (male Sprague-Dawley rats [1]; male, Sprague-Dawley, rat, in vivo, po) does the source give for `CC(=O)O[C@]1(C(C)=O)CC[C@H]2[C@@H]3C[C@H](C)C4=CC(=O)CC[C@]4(C)[C@H]3CC[C@@]21C` [MPA, 6α-methyl-17α-hydroxy-progesterone acetate] here?
Answer: The value was “maintained throughout the 24 hour of sampling”.

Question: And the “peak progesterone activity in words” value (male Sprague-Dawley rats [1]; oral)?
Answer: Its value is “comparable to that observed with saturating doses of progesterone in-vitro”.

Question: And the “serum activity versus baseline of rats administered vehicle only” value (male Sprague-Dawley rats [1]; oral, MPA 10 mg/2 ml)?
Answer: Its value is “about 5 fold”.

Question: What about the “peak progestogenic activity versus serum from rats administered vehicle only” value (male Sprague-Dawley rats [2]) of the same molecule?
Answer: Its value is “about 5 fold”.

Question: Which total effective rate [3] does the source give for `CC(=O)Oc1ccccc1C(=O)O` [aspirin] here?
Answer: The total effective rate was 61.7%.

Question: For `CC(=O)O[C@]1(C(C)=O)CC[C@H]2[C@@H]3C=C(C)C4=CC(=O)CC[C@]4(C)[C@H]3CC[C@@]21C` [megesterol acetate], which “increase in hormonal activity over controls exposed to vehicle only at peak activity” value [4] is on record?
Answer: Its value is 300 fold.

Question: Which “increase in hormonal activity over controls exposed to vehicle only at peak activity” value [4] does the source give for `CC(=O)[C@H]1CC[C@H]2[C@@H]3CCC4=CC(=O)CC[C@]4(C)[C@H]3CC[C@]12C` [progesterone] here?
Answer: Its value is 300 fold.

Question: With dextran 40 as the molecule, how does the “total therapeutic efficacy rate” value [5] read?
Answer: The value was 62.8%.
